According to patent US7718664B2, “Anti-itching agent” (Toray Industries, Inc., priority 2004, dated 2010):
Where a name gives a salt, the structure may show the parent alone.

system: Male ddY mice; test: Inhibitory effect of scratching behavior induced by Substance-P; format: in vivo, mouse; conditions: test drug sc 30 minutes before intradermal Substance-P, scratching counted for 30 minutes
Protocol: Male ddY mice were purchased when they were 4 weeks old, and used in the experiments when they became 5 weeks old after acclimation. One day before experiment, each mouse had hair on the rostral back skin clipped with a hair clipper. Each of test drugs was dissolved in 10% DMSO. Either the test drug or vehicle was administered subcutaneously into the rostral back of the mouse, and 30 minutes later, Substance-P (250 nmom/site) dissolved in PBS (phosphate buffered saline) was administered intradermally into the hair-clipped skin at a dose of about 50 μL. Immediately thereafter, each mouse was put into a cage for observation (10*14*22 cm), and the subsequent behavior of each mouse was recorded by an unattended video camera for 30 minutes. The video tape was replayed, and the number of times that the mouse scratched at or around the Substance-P-administered site with its hind limb was counted. In the experiment, each group consisted of 8 mice. In cases where there was a statistically significant difference in the mean number of scratching between the solvent-administered group and the test drug-administered group, the test drug was judged to have an antipruritic effect. The results are shown in terms of the predicted administration dosage at which the number of scratching was reduced to half of that in the solvent-administered group (Table 5).

| SMILES | ED50 (predicted administration dosage at which the number of scratching was reduced to half of that in the solvent-administered group) |
| --- | --- |
| O=C1c2ccccc2C(=O)N1[C@@H]1CC[C@@]2(O)[C@H]3Cc4ccc(O)c5c4[C@@]2(CCN3CC2CC2)[C@H]1O5 [Compound 1, N-[(17-cyclopropylmethyl)-4,5α-epoxy-3,14-dihydroxy-morphinan-6β-yl]-phthalimide hydrochloric acid salt] | 0.0034 mg/kg, sc |
| C=CCN1CC[C@]23c4c5ccc(O)c4O[C@H]2[C@H](N2C(=O)c4ccccc4C2=O)CC[C@@]3(O)[C@H]1C5 [Compound 2, N-[(17-allyl)-4,5α-epoxy-3,14-dihydroxy-morphinan-6β-yl]-phthalimide tartaric acid salt] | 0.32 mg/kg, sc |
| O=C1C2=C(CCCC2)C(=O)N1[C@@H]1CC[C@@]2(O)[C@H]3Cc4ccc(O)c5c4[C@@]2(CCN3CC2CC2)[C@H]1O5 [Compound 3, N-[(17-cyclopropylmethyl)-4,5α-epoxy-3,14-dihydroxy-morphinan-6β-yl]-3,4,5,6-tetrahydrophthalimide tartaric acid salt] | 0.0033 mg/kg, sc |
| O=C1c2ccccc2S(=O)(=O)N1[C@@H]1CC[C@@]2(O)[C@H]3Cc4ccc(O)c5c4[C@@]2(CCN3CC2CC2)[C@H]1O5 [Compound 4, [N-(17-cyclopropylmethyl)-4,5α-epoxy-3,14-dihydroxy-morphinan-6β-yl]-O-sulfonebenzimide tartaric acid salt] | 0.0081 mg/kg, sc |
| O=C1c2ccccc2CN1[C@@H]1CC[C@@]2(O)[C@H]3Cc4ccc(O)c5c4[C@@]2(CCN3CC2CC2)[C@H]1O5 [Compound 5, 2-[(17-cyclopropylmethyl)-4,5α-epoxy-3,14-dihydroxy-morphinan-6β-yl]-2,3-dihydro-isoindole-1-one tartaric acid salt] | 0.015 mg/kg, sc |
| O=C1c2ccccc2C(=O)N1[C@@H]1CC[C@@]2(O)[C@H]3Cc4ccc(O)c5c4[C@@]2(CCN3CC2CC2)[C@H]1O5 [Compound 6, N-[(17-cyclopropylmethyl)-4,5α-epoxy-3,14-dihydroxy-morphinan-6β-yl]-phthalimide] | 0.0029 mg/kg, sc |
| CN(C(=O)c1ccccc1)[C@@H]1CC[C@@]2(O)[C@H]3Cc4ccc(O)c5c4[C@@]2(CCN3CC2CC2)[C@H]1O5 [Compound 7, 17-cyclopropylmethyl-4,5α-epoxy-3,14-dihydroxy-6β-(N-methylbenzamido)-morphinan hydrochloric acid salt, reference compound] | 0.55(Reference Example) mg/kg, sc |

system: not given; test: not given; conditions: in vivo; cited from earlier work

| SMILES | effect on severe pruritus in cholestasia with hepathopathy |
| --- | --- |
| C=C1CC[C@@]2(O)[C@H]3Cc4ccc(O)c5c4[C@@]2(CCN3CC2CC2)[C@H]1O5 [nalmefene] | suppressed |

system: not given; test: not given; conditions: epidurally or intrathecally administered; cited from earlier work

| SMILES | induction of pruritus |
| --- | --- |
| CN1CC[C@]23c4c5ccc(O)c4O[C@H]2[C@@H](O)C=C[C@H]3[C@H]1C5 [morphine] | induced |
